{"source": "patent US9921212B2", "about": "“Preventive and therapeutic drug for cartilaginous hyperplasia and method of screening for the same” (KYOTO UNIVERSITY, priority 2014, dated 2018)", "key": {"human SOX9 promoter": {"tested_on": "human SOX9 promoter", "test": "human SOX9 promoter luciferase reporter activity in chondroprogenitor cells", "assay_type": "cell-based", "settings": "mutant-type chondroprogenitor cells, 10 μM, 24 hours", "description": "In order to examine SOX9 regulation, human SOX9 promoter activity in chondroprogenitor cells was confirmed. A reporter construct prepared by inserting a −927- to +84-bp human SOX9 promoter region (transcription start site: 0) into a pGL3-luciferase reporter plasmid (Promega) in accordance with Ushita M et al., Osteoarthritis and cartilage/OARS, Osteoarthritis Research Society. 2009; 17(8): 1065-75 was used for confirmation (FIG. 7A and Table 2). Chondroprogenitor cells obtained by the above method were seeded on a 6-well plate (50000 cells/well). A FuGENE 6 transfection reagent was used for transfection (2 μg DNA/well). Twenty four hours later, luciferase activity was determined using a Dual-Luciferase Reporter Assay Kit (Promega) and a Centro XS^3 LB 960 Microplate Luminometer (BERTHOLD) for calculation of promoter activity. […] Next, in order to identify mutation of a site responsible for NLRP3-dependent responsiveness, reporter constructs each having a mutation in an NFAT-binding sequence, an AP-1-binding sequence, an NF-κB-binding sequence, an Sp1-binding sequence, or an CREB/ATF-binding sequence were prepared as listed in Table 3. These mutated reporter constructs were transfected into chondroprogenitor cells in the above manner to confirm promoter activity. […]"}, "[1]": {"tested_on": "mutant-type chondroprogenitor cells", "test": "3D pellet culture, size of cartilaginous pellets (Alcian Blue stained area), mutant-type", "assay_type": "cell-based, human", "settings": "added during 3D pellet culture", "protocol": "Chondroprogenitor cells obtained by the above method were cultured in a cartilage induction medium containing 5 ng/mL FGF2 and 10 ng/ml TGFβ3 for 3 days. Then, 2.5×10^5 cells were centrifuged to form a pellet, followed by culture in a cartilage induction medium containing 0.5 ml of 40 ng/ml PDGF-BB and 1% FCS, as in the case of 2D micromass culture. Six days later, 10 ng/ml TGFβ3 was further added for culture. Ten days later, PDGF-BB was substituted with 50 ng/ml BMP4 (WAKO). 3D pellet culture was mained at 37° C. in 5% CO2 for 28 days.\nIn order to examine the chondrocytes induced via 2D micromass culture and those induced via 3D pellet culture, the cells obtained by 2D micromass culture were fixed with 4% paraformaldehyde (PFA) for 1 hour and stained with 1% Alcian Blue (pH 1.0) (Sigma-Aldrich), and the cells obtained by 3D pellet culture were fixed with 4% paraformaldehyde (PFA) for 1 hour and stained with 0.1% Alcian Blue (pH 1.0) (Sigma-Aldrich). Further, immunostaining was carried out using an anti-COL2 antibody (Thermo Scientific). Alcian blue is a reagent for detecting an extracellular matrix secreted by chondrocytes, and COL2 is a gene that is expressed in a chondrocyte-specific manner.\nFurther, the influence of adenylate cyclase was examined with the addition of forskolin and SQ22536 during 3D pellet culture. […]"}, "SOX9 [2]": {"tested_on": "SOX9", "test": "mRNA expression of SOX9 in chondroprogenitor cells with forskolin and SQ22536 added", "assay_type": "cell-based, human", "settings": "wild-type and mutant-type chondroprogenitor cells", "protocol": "(§1) mRNA was isolated from each cell using an RNeasy Mini Kit (Qiagen). cDNA was synthesized via reverse transcription using 1 μg of the obtained total RNA as a template and a Superscript III reverse transcriptase (Invitrogen). A standard curve for quantitative real-time PCR was created to conduct analysis. Real-time PCR analysis was conducted using a Power SYBR Green qPCR mastermix (Invitrogen) and a StepOne real-time PCR system (ABI) for quantitative determination.\nIn order to examine whether or not the […] signal transduction pathway is involved in cartilaginous hyperplasia, analysis was conducted using forskolin, which is an adenylate cyclase activator, and SQ22536, which is an adenylate cyclase inhibitor. This test was conducted by introducing a human SOX9 promoter into chondroprogenitor cells, immediately treating the cells with 10 μM forskolin (CALBIOCHEM) or 10 μM SQ22536 (Sigma-Aldrich), and incubating cells for 24 hours so as to determine luciferase activity. As a result, the SOX9 promoter activity in mutant-type chondroprogenitor cells treated with forskolin increased to a level 2.3 times that of mutant-type chondroprogenitor cells (control) treated with a base (DMSO) (FIG. 7D). Meanwhile, the SOX9 promoter activity in mutant-type chondroprogenitor cells treated with SQ22536 decreased to a level half that in the control (FIG. 7D)."}, "SOX9 [3]": {"tested_on": "SOX9", "test": "2D micromass culture with inhibitor added, SOX9 expression", "assay_type": "cell-based, human", "settings": "10 μM or 1 μg/mL", "protocol": "(§2) Chondroprogenitor cells (1.5×10^5 cells) obtained via the above method were suspended in a cartilage induction medium containing 40 ng/ml PDGF-BB and 1% FCS and the suspension was spotted in the form of […] drops on a fibronectin-coated 24-well plate (BD), followed by culture. In this case, the medium was replaced every three days. Six days later, 10 ng/ml TGFβ3 was further added for culture. Ten days after the start of 2D micromass culture, PDGF-BB was substituted with 50 ng/ml BMP4 (WAKO). 2D micromass culture was performed at 37° C. in 5% CO2 for 14 days.\nas §1\nFurther, 2D micromass culture was performed with the addition of 10 μM or 1 μg/mL Ac-YVAD-CHO. As a result, there was no influence in cartilaginous hyperplasia (FIGS. 6A, 6B, 6D, 6E, 6F, and 6H) or SOX9 expression (FIGS. 6C and 6G)."}, "[4]": {"tested_on": "mutant-type iPSC-derived chondrocytes", "test": "2D micromass culture with inhibitor added, cartilaginous hyperplasia (pellet size, GAG)", "assay_type": "cell-based, human", "settings": "10 μM or 1 μg/mL", "protocol": "as §2\nSubsequently, quantitative analysis of the amount of DNA and the glycosaminoglycan production amount after chondrocyte differentiation was conducted. The amount of DNA was determined using a Pico Green dsDNA Quantitation kit (Invitrogen) in the manner described in Nasu A, et al., PloS one. 8(1): e53771 (2013). The extracellular matrix production amount was determined using Blyscan glycosaminoglycan Assay (Biocolor) in accordance with the manufacturer's protocol. As a result, no difference in the amount of DNA in chondrocytes was found between wild-type iPSC-derived cartilage tissue and mutant-type iPSC-derived cartilage tissue in both cases of 2D micromass culture and 3D pellet culture (FIGS. 3B and 3C). […]"}}, "data": [{"compound": "C=C[C@@]1(C)CC(=O)[C@]2(O)[C@@]3(C)[C@@H](O)CCC(C)(C)[C@@H]3[C@H](O)[C@H](OC(C)=O)[C@@]2(C)O1", "note": "[forskolin]", "values": [{"measurement": "SOX9 promoter activity, increase relative to control treated with a base (DMSO)", "setting": "human SOX9 promoter", "result": 2.3, "unit": "times"}, {"measurement": "size, increase relative to control treated with a base (DMSO)", "setting": "[1]", "result": 2.0, "unit": "times"}]}, {"compound": "Nc1ncnc2c1ncn2C1CCCO1", "note": "(stereo not shown) [SQ22536, 9-(tetrahydro-2-furanyl)-adenine]", "values": [{"measurement": "SOX9 promoter activity, decrease relative to control treated with a base (DMSO)", "setting": "human SOX9 promoter", "result": "half"}, {"measurement": "size, decrease relative to control treated with a base (DMSO)", "setting": "[1]", "result": 2.1, "unit": "times less"}, {"measurement": "effect on mRNA expression of SOX9, relation to SOX9 promoter activity data", "setting": "SOX9 [2]", "result": "correlated"}]}, {"compound": "Ac-YVAD-CHO", "values": [{"measurement": "influence in SOX9 expression", "setting": "SOX9 [3]", "result": "no influence"}, {"measurement": "influence in cartilaginous hyperplasia", "setting": "[4]", "result": "no influence"}]}]}
